Experimental data as given in ChEMBL document CHEMBL6109147, “Discovery of Potent STING Inhibitors Bearing a Difluorobenzodioxol Structural Motif as Potent Anti-Inflammatory Agents” (J Med Chem, 2025).
The source made the active and inactive calls. The calls are words filed in the database; no cut-off is given here.

Legend:
[1] = AUC (0 to infinity) in Sprague-Dawley rat at 1 mg/kg, iv; format: ADME, organism-based; conditions: in vivo
[2] = Metabolic stability in human liver microsomes assessed as microsomal intrinsic clearance; format: ADME, Microsome; conditions: read-out: CLH
[3] = biological target: Stimulator of interferon genes protein (Homo sapiens) (UniProt Q86WV6); test: Inhibition of STING downstream signalling in human THP1-Dual cells assessed as inhibition of MSA-2 induced IP-10 secretion at 0.3 to 3 uM pre-treated for 1 hr followed by stimulated with MSA-2 measured after 24 hrs by ELISA; format: cell-based; conditions: dose 0.3-3 µM, time 25.0 hrs
[4] = biological target: T1, Stimulator of interferon genes protein (Mus musculus) (UniProt Q3TBT3); test: Inhibition of STING downstream signalling in mouse RAW264.7 cells assessed as inhibition of DMAAA induced Isg56 mRNA level pre-treated for 1 hr followed by stimulated with DMAAA measured after 4 hrs by real-time PCR analysis; format: cell-based; conditions: dose 0.3-3 µM, time 5.0 hrs
T1 sequence (whole entry): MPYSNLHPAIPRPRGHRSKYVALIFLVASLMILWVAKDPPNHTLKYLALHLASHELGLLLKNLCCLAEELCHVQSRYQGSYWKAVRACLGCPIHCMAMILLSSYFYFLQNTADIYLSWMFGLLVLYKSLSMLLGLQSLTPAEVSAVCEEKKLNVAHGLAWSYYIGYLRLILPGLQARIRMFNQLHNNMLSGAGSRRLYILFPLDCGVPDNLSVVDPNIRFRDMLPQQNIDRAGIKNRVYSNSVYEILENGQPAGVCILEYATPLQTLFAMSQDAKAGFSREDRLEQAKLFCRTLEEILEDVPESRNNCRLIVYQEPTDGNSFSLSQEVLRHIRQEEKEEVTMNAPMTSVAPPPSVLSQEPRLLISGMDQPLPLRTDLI

Mus musculus [5] = test: Anti-inflammatory activity against Cisplatin induced C57BL/6 mouse kidney inflammation model assessed as prevention of Cisplatin induced glomerular injury at 5 mg/kg, ip treated for 3 days; format: functional, organism-based; conditions: time 3.0 day
Mus musculus [6] = test: Anti-inflammatory activity against Cisplatin induced C57BL/6 mouse kidney inflammation model assessed as prevention of Cisplatin induced interstitial vacuolation at 5 mg/kg, ip treated for 3 days; format: functional, organism-based; conditions: time 3.0 day
Mus musculus [7] = test: Anti-inflammatory activity against Cisplatin induced C57BL/6 mouse kidney inflammation model assessed as suppression of Cisplatin induced Cxcl-10 mRNA level in kidney at 5 mg/kg, ip treated for 3 days by real-time PCR analysis; format: functional, organism-based; conditions: time 3.0 day
Mus musculus [8] = test: Anti-inflammatory activity in TREX1 D18N mouse model assessed as reduction in Isg56 mRNA expression in heart at 10 mg/kg, ip measured after 2 weeks; format: functional, organism-based

Stimulator of interferon genes protein (Homo sapiens), sequence (Q86WV6 whole entry): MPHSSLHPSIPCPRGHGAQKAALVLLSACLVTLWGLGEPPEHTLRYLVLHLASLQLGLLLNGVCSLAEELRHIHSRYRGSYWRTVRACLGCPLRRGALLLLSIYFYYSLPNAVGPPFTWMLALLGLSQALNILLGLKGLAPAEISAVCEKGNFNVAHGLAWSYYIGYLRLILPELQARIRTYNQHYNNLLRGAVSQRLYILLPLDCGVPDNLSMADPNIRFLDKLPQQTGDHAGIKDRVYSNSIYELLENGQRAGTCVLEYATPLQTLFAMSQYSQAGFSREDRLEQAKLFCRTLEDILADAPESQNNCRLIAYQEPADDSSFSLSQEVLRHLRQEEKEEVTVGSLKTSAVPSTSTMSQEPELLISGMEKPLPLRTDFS

SMILES: N#CC/C=C/c1ccc2[nH]cc(NC(=O)Nc3ccc4c(c3)OC(F)(F)O4)c2c1
- AUC(0-inf) [1]: 196 ng·h/mL
- microsomal CLint [2]: 41 µL/min/mg
- inhibition [3]: Active
- inhibition [4]: Dose-dependent-effect
- inhibition (Mus musculus [5]): inactive
- inhibition (Mus musculus [6]): inactive
- inhibition (Mus musculus [7]): Active
- Activity (Mus musculus [8]): Active
